According to PMC6811774, “Potent, selective, and subunit‐dependent activation of TRPC5 channels by a xanthine derivative” (British Journal of Pharmacology, 2019):

Assays:
[1] = biological target: T1, native TRPC1:C4 channels in A498 cells (Homo sapiens, UniProt P48995+Q9UBN4); assay: [Ca2+]i measurement in A498 renal carcinoma cells; assay type: cell-based
T1 construct: A498 renal carcinoma cells, which endogenously express TRPC1:C4 channels; endogenous in cells; host or cells: A498

[2] = biological target: T2, TRPC5:C5 channels (hTRPC5) (Homo sapiens, UniProt Q9UL62); assay: Excised outside-out patch-clamp, hTRPC5-expressing HEK (Tet+) T-REx cells; assay type: cell-based
T2 construct: expressed in transfected cells
T2 sequence (Q9UL62 1-973): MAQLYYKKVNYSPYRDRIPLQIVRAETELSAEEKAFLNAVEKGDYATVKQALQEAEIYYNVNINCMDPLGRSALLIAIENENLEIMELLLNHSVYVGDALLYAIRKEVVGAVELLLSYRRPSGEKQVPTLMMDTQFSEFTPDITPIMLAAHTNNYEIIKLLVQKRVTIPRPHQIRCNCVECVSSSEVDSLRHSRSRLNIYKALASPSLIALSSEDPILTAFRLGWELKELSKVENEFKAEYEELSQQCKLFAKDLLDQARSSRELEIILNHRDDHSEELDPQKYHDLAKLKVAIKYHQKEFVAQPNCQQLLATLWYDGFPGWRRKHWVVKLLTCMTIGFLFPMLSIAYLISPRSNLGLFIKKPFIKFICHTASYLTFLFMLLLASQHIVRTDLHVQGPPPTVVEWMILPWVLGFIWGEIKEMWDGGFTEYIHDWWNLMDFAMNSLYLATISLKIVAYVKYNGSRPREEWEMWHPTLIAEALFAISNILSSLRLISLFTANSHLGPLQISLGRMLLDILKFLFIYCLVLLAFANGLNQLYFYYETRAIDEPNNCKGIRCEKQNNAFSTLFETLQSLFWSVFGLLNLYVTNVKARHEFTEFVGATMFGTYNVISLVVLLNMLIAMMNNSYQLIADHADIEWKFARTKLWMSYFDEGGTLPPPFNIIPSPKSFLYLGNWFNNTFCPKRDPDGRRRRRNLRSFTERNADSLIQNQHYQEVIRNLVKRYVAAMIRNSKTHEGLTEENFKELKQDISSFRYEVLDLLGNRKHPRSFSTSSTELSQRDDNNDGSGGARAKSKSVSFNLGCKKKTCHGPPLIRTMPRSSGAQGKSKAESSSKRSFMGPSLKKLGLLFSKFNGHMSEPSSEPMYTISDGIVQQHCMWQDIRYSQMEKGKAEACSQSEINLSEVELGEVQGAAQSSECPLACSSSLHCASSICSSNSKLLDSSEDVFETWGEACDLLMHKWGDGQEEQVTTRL
Method: For electrophysiology experiments, cells were plated at a low density of 20–30% onto round or square glass coverslips (13 mm diameter or 5 × 5 mm), and TRPC expression in HEK T‐REx was induced with 1 μg·ml^−1 tetracycline 24 hr before experimentation. Experiments were carried out at room temperature. Extracellular solution consisted of SBS. Patch‐clamp recordings were performed in whole‐cell mode (Figure S7) and in excised outside‐out patch mode under voltage clamp at room temperature using 2–4 MΩ patch pipettes fabricated from borosilicate glass capillaries with an outside diameter of 1 mm and an inside diameter of 0.58 mm (Harvard Apparatus). The voltage protocol comprised voltage ramps applied from −100 to +100 mV every 10 s from a holding potential of 0 mV. The patch‐clamp currents were recorded using Axopatch 200B or HEKA EPC‐800 amplifiers, digitized by a Digidata 1440 or PCI6229 (National Instruments Japan, Tokyo, Japan) and recorded to a computer using pCLAMP10 (Molecular Devices) or WinWCPV4.5 (developed by Dr John Dempster, University of Strathclyde, UK). The data were filtered at 1 kHz and analysed offline using Clampfit 10.2 software or WinWCPV4.5 and Origin 9.1 software (OriginLab, Northampton, MA). The bath solution consisted of SBS and the pipette solution (intracellular solution) contained 145‐mM CsCl, 2‐mM MgCl2, 10‐mM HEPES, 1‐mM EGTA (free acid), 5‐mM ATP (sodium salt), and 0.1‐mM NaGTP, titrated to pH 7.2 with CsOH. All solutions were filtered using a 0.2 μm filter (Sartorius, UK). Comparisons of peak current sizes mediated by EA‐activated TRPC1/4/5 channels in whole cells and excised outside‐out patches are provided in Figure S12.

[3] = tested on: HEK T-REx (Tet+) cells expressing TRPC5; assay: LIVE/DEAD cell viability assay; assay type: cell-based, human; conditions: AM237 up to 1 μM, 30 min
Method: Cell viability was assayed using the LIVE/DEAD® cell viability kit (Molecular Probes™, Eugene, Oregon, USA). HEK T‐REx expressing tetracycline‐inducible hTRPC5 were plated onto black, clear bottom poly‐D‐lysine‐coated 96‐well plates, at 25,000 cells per well, and TRPC5 protein expression was induced with 1 μg·ml^−1 tetracycline. Cells were cultured for 24 hr in DMEM‐F12 GlutaMAX (Invitrogen, Paisley, UK) containing 10% FBS, with the addition of blasticidin (10 μg·ml^−1) and zeocin (400 μg·ml^−1). For wells containing methanol‐treated positive control cells, medium was removed and 70% methanol/distilled water (100 μl) was added and cells returned to the incubator for 30 min. After incubation, the solution in each well was replaced with recording buffer (SBS with 0.01% pluronic acid and 0.05% DMSO; 100 μl). The LIVE/DEAD® (Molecular Probes™, Eugene, Oregon, US) cell viability kit was used to stain the cells. Calcein AM (5 μl) and ethidium homodimer‐1 (20 μl) were added to SBS with […] (10 ml). Compound and vehicle dilutions were carried out directly in LIVE/DEAD® solution and 100 μl of each was added to the recording buffer in each corresponding well. Cells were incubated for 30 min and immediately imaged. Imaging and analysis was carried out on the IncuCyte® ZOOM (Essen Bioscience, Welwyn Garden City, UK).

T1 sequence (Q9UBN4 whole entry): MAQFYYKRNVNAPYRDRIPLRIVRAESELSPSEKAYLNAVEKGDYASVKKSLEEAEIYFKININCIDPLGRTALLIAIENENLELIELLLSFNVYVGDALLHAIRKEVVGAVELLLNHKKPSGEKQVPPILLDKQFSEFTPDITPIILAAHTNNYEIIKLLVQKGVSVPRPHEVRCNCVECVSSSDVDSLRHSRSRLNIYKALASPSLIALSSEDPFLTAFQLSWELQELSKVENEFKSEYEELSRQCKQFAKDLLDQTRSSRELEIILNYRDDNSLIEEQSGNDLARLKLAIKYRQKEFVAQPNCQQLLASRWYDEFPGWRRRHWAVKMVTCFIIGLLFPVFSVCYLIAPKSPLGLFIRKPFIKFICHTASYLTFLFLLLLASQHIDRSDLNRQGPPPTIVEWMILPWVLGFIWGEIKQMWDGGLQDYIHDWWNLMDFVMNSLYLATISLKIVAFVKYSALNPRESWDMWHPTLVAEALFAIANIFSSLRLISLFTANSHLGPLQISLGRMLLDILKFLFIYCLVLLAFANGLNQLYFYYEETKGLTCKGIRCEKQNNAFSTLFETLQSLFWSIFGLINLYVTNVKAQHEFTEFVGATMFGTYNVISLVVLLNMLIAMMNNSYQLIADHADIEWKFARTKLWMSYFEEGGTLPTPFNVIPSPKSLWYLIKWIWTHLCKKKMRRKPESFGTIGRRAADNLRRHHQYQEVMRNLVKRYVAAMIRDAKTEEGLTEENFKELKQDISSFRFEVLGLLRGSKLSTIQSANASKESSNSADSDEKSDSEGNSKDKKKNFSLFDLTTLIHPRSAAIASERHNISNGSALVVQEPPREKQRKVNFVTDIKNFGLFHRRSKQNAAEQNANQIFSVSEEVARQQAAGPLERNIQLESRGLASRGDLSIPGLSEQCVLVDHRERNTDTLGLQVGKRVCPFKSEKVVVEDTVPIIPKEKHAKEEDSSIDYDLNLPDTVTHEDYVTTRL
T1 sequence (P48995 whole entry): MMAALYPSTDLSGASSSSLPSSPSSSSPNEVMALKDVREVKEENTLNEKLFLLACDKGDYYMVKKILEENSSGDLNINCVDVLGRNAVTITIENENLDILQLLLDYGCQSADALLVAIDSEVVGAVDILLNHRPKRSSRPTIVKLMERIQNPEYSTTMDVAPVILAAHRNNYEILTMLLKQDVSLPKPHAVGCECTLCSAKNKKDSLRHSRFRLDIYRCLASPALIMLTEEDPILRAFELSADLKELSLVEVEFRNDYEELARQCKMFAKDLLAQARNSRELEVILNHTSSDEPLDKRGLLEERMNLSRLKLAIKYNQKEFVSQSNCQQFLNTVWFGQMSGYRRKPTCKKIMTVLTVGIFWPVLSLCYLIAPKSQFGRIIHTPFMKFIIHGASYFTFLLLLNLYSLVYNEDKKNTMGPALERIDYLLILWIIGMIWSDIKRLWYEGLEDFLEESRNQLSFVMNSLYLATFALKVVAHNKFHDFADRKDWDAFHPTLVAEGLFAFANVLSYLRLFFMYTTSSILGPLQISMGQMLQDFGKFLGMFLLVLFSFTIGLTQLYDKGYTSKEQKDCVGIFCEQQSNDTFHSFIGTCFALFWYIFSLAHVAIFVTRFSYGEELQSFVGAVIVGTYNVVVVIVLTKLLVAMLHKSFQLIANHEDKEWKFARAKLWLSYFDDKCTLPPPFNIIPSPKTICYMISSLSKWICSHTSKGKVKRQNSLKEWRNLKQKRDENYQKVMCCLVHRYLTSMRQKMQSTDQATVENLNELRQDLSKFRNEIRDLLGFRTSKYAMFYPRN

With `Cn1c(=O)n(CCCO)c(=O)c2c1nc(Oc1ccc(Cl)c(OC(F)(F)F)c1)n2Cc1ccc(Cl)cc1` [AM237] the “Hill slope, inhibition of EA response” value [1] was -0.99, the “Effect of pretreatment on basal [Ca2+]i” value ([1]; 0.01–10 nM AM237) was “no effect” and the “Activation upon acute administration ([Ca2+]i)” value ([1]; 3-300 nM AM237) was “lack of activation”. For the same compound, the IC50 ([1]; AM237 pretreatment, then EA, read-out: IC50, inhibition of EA-mediated increase in [Ca2+]i) was 0.849 nM, the “Effect on inward and outward currents induced by EA” value ([2]; 30 nM EA, outside-out patch) was “partially suppressed” and the “Amplitude of outward current response compared to response induced by 30-nM EA” value ([2]; +100 mV, outside-out patch) was “up to 45%”. For the same compound, the “Amplitude of inward current response compared to response induced by 30-nM EA” value ([2]; -100 mV, outside-out patch) was “up to 25%”, the “Concentration giving peak current” value ([2]; in the presence of 1- and 3-nM Pico145, decreasing at 300 nM and 1 μM) was 100 nM and the “Concentration giving maximum current response” value ([2]; no Pico145, lower responses at 100 nM) was 30 nM. The “Cell viability (LIVE/DEAD)” value [3] was “did not lead to reduced”.
